Results reported in patent publication US5591735A, “Androstane derivatives substituted by a quaternary ammonium group in 16-position, pharmaceutical compositions containing them and process for preparing same” (Marvishi Pharmaceutical Co., Ltd., priority 1992, dated 1997).
Where a name gives a salt, the structure may show the parent alone.

Experiments:
[1] = tested on: phrenic nerve-hemidiaphragm preparation; experiment: In vitro muscle relaxing effect on the isolated phrenic nerve-hemidiaphragm preparation of rats; set-up: species or system rat; settings: for IC90: read-out: ED90 rat
[2] = tested on: phrenic nerve-hemidiaphragm preparation; experiment: In vitro muscle relaxing effect on the isolated phrenic nerve-hemidiaphragm preparation of guinea-pigs; set-up: species or system guinea-pig; settings: for IC90: read-out: ED90 guinea-pig
[3] = tested on: anterior tibial muscle (musculus tibialis anterior); experiment: In vivo effect on the anterior tibial muscle of the guinea-pig; settings: for time for the 75% neuromuscular block to decrease to 25%: 2×ED90 doses; for ED50 / ED90: Cavia porcellus, iv; for Clinical duration / Onset time: 2 × ED90 dose; for Clinical duration / Recovery 25%-75% / Onset time: guinea-pig, mean ± SEM (n = 4); for Onset time: time required to 95% block
[4] = background; cited from earlier work
neuromuscular block = experiment: Comparison of the effects of 2 × ED90 doses in beagle dog; type: in vivo; set-up: Tetanic fade: unit not given here; settings: mean ± SEM; for Recovery 0-75% / Recovery index / Time to max. recovery: P <0.02; for T4/T1 at max. recovery: P <0.05; for Clinical duration / Onset time / Time to 80% block / ED90 / ED95: n = 8; for Clinical duration / Onset time: P <0.001; for Time to 80% block: P <0.01; for ED90 / ED95: Canis lupus familiaris, beagle dog
Description: Comparison of the effects of 2 × ED90 doses in beagle dog (no.
animals in parentheses). Mean ± SEM.

vagus = settings: 4×ED90 dose; cited from earlier work
vagus nerve = experiment: Antivagal effect on anesthetized cat
[5] = tested on: phrenic nerve-hemidiaphragm preparation; experiment: Reversal of the in vitro neuromuscular block (wash-out, neostigmine, edrophonium); set-up: species or system rats and guinea-pigs
[6] = rat, 0.1 Hz, 0.2 ms, supramaximal stimulus, mean ± SEM (n = 4)

Row | Compound | IC90 [1, 6] | time for the 75% neuromuscular block to decrease to 25% ([3]; guinea-pigs) | ED50 [3] | ED90 [3] | Clinical duration [3] | Recovery 25%-75% [3] | Onset time [3] | cardiovascular side effects / stability [4] | IC90 ([1]; Rattus norvegicus) | Recovery 0-75% (neuromuscular block; 2 × ED90, beagle dog, n = 4) | Recovery index (neuromuscular block; 2 × ED90, beagle dog, n = 4) | Time to max. recovery (neuromuscular block; 2 × ED90, beagle dog, n = 4) | T4/T1 at max. recovery (neuromuscular block; 2 × ED90, beagle dog, n = 4) | Clinical duration (neuromuscular block; 2 × ED90, beagle dog) | Onset time (neuromuscular block; 2 × ED90, beagle dog) | Time to 80% block (neuromuscular block; 2 × ED90, beagle dog) | ED90 (neuromuscular block) | ED95 (neuromuscular block) | IC90 ([2]; Cavia porcellus) | further results
1 | 7',12dihydroxy-6,6dimethoxy-2,2',2trimethyltubocuraranium chloride hydrochloride [Tubocurarine chloride] | 1020 ± 10 nM | – | – | – | – | – | – | – | – | – | – | – | – | – | – | – | – | – | – | IC90 ([2]; guinea-pig, 0.1 Hz, 0.2 ms, supramaximal stimulus, mean ± SEM (n = 4)): 1330 ± 90 nM
2 | CC(=O)O[C@H]1C[C@@H]2CC[C@@H]3[C@H](CC[C@@]4(C)[C@H]3C[C@H](N3CC[N+](C)(C)CC3)[C@@H]4OC(C)=O)[C@@]2(C)C[C@@H]1N1CC[N+](C)(C)CC1.[Br-].[Br-] [Pipecuronium bromide, 4,4'-[3α,17β-bis(acetyloxy)-5α-androstane-2β,16β-diyl]bis[1,1-dimethylpiperazinium]dibromide] | 1500 ± 40 nM | 60.6 min | 0.004 ± 0.0007 mg/kg | 0.006 ± 0.0007 mg/kg | 60.6 ± 9.28 min | 24.6 ± 3.71 min | 1.5 ± 0.08 min | exceed those of pancuronium bromide or vecuronium bromide | – | – | – | – | – | – | – | – | – | – | – | IC90 ([2]; Cavia porcellus, guinea-pig, 0.1 Hz, 0.2 ms, supramaximal stimulus, mean ± SEM (n = 4)): 80 ± 3 nM
3 | CC(=O)O[C@H]1C[C@@H]2CC[C@@H]3[C@H](CC[C@@]4(C)[C@H]3C[C@H]([N+]3(C)CCCCC3)[C@@H]4OC(C)=O)[C@@]2(C)C[C@@H]1N1CCCCC1 [Vecuronium bromide, 1-[3α,17β-bis(acetyloxy)-2β-(1-piperidinyl)androstan-16β-yl]1-methylpiperidinium bromide hydrochloride] | – | – | 0.007 ± 0.0019 mg/kg | 0.011 ± 0.002 mg/kg | 26.6 ± 4.61 min | 9.0 ± 2.35 min | 1.3 ± 0.51 min | lack of cardiovascular side effects | 8720 ± 380 nM | 24.9 ± 3.0 min | 6.6 ± 1.1 min | 31.4 ± 4.3 min | 71.0 ± 2.9 | 17.8 ± 1.1 min | 115.1 ± 8.6 s | 62.8 ± 4.5 s | 0.0358 ± 0.0009 mg/kg | 0.0379 ± 0.001 mg/kg | 250 ± 10 nM | –
4 | CC(=O)O[C@H]1C[C@@H]2CC[C@@H]3[C@H](CC[C@@]4(C)[C@H]3C[C@H]([N+]3(C)CCCCC3)[C@@H]4OC(C)=O)[C@@]2(C)C[C@@H]1[N+]1(C)CCCCC1 [Pancuronium bromide, 1'-[3α,17β-bis(acetyloxy)-5α-androstane-2β,16β-diyl]bis[1-methylpiperidinium]dibromide] | – | 45.6 min | 0.01 ± 0.0011 mg/kg | 0.015 ± 0.0019 mg/kg | 45.6 ± 5.68 min | 14.8 ± 2.45 min | 1.1 ± 0.31 min | – | 6360 ± 30 nM | – | – | – | – | – | – | – | – | – | 290 ± 10 nM | inhibition of the decrease of blood pressure caused by vagal stimulation (vagus): 50%; inhibition of the decrease of heart rate caused by vagal stimulation (vagus): 50%
5 | C=CC[N+]1([C@H]2C[C@H]3[C@@H]4CC[C@H]5C[C@H](OC(C)=O)[C@@H](N6CCC7(CC6)OCCO7)C[C@]5(C)[C@H]4CC[C@]3(C)[C@H]2OC(C)=O)CCCC1.[Br-] [Example 8, 1-[3α,17β-bis(acetyloxy)-2β-(1,4-dioxa-8-azaspiro[4.5]dec-8-yl)-5α-androstan-16β-yl]-1-(2-propenyl)pyrrolidinium bromide] | – | 10.1 min | 0.034 ± 0.002 mg/kg | 0.048 ± 0.0027 mg/kg | 10.1 ± 1.32 min | 2.4 ± 0.3 min | 0.9 ± 0.18 min | – | 8370 ± 260 nM | 16.2 ± 0.9 min | 3.4 ± 0.4 min | 24.4 ± 2.0 min | 91.3 ± 4.8 | 12.6 ± 0.6 min | 75.3 ± 5.9 s | 48.4 ± 2.9 s | 0.0105 ± 0.0002 mg/kg | 0.0111 ± 0.0002 mg/kg | 900 ± 30 nM | duration of action compared with reference substances ([3]; guinea-pigs, in vivo): shorter than those of other reference substances with similar chemical structure; onset of action compared with reference substances ([3]; guinea-pigs, in vivo): more rapid; block of the vagus (vagus nerve; 8×ED90 dose): did not block the vagus; inhibition of the effects of electrical stimulation of the vagus on heart rate or blood pressure (vagus nerve; 8×ED90 dose): did not inhibit the effects of electrical stimulation of this nerve on heart rate or blood pressure; change in heart rate or blood pressure on electrical stimulation of the vagus (vagus nerve; in vivo cat experiments): no significant change in heart rate or blood pressure; effect on the vagus (vagus nerve; in vivo cat experiments): no stimulating effect on the vagus; Decrease in heart rate (vagus nerve; vagal stimulation, anesthetized cat, mean ± SEM (n = 4), control 14 ± 1.8): 15 ± 2.9%; Decrease in blood pressure (vagus nerve; vagal stimulation, anesthetized cat, mean ± SEM (n = 4), control 40.0 ± 8.1): 32.0 ± 6.6 Hgmm; neuromuscular blocking (inhibitory) effect compared with known muscle relaxants ([1]; rat, in vitro): of the similar order of magnitude as that of other known, clinically employed muscle relaxants; Tetanic fade (neuromuscular block; 2 × ED90, beagle dog, n = 4, P n.s. (not significant)): 97.5 ± 1.9; onset of action ([5]; in vitro): rapid; reversibility by wash-out ([5]; in vitro): easily reversible by wash-out; antagonism of the effect ([5]; with neostigmine methyl sulfate or edrophonium chloride): could also be antagonized with neostigmine methyl sulfate; neuromuscular blocking (inhibitory) effect compared with known muscle relaxants ([2]; guinea-pig, in vitro): of the similar order of magnitude as that of other known, clinically employed muscle relaxants
